Measured values published in ChEMBL document CHEMBL1158374, “Exploring QSAR and QAAR for inhibitors of cytochrome P450 2A6 and 2A5 enzymes using GFA and G/PLS techniques” (Eur J Med Chem, 2009).

Key:
Cytochrome P450 2A5 = target: T1, Cytochrome P450 2A5 (Mus musculus, UniProt P20852); experiment: Inhibition of mouse CYP2A5
T1 sequence (P20852 whole entry): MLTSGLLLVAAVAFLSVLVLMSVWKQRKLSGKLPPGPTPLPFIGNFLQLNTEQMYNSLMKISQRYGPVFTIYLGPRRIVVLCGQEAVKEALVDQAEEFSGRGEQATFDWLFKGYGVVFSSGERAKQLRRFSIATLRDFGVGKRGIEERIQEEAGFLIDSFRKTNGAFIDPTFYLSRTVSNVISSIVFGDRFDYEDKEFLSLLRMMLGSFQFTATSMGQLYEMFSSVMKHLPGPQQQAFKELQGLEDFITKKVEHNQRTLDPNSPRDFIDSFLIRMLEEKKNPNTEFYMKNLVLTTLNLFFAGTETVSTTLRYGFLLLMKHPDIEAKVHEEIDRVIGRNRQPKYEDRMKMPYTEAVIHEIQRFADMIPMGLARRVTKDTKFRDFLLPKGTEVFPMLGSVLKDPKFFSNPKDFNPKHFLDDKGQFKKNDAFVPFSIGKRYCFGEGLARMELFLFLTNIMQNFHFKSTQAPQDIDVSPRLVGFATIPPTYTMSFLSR

Cytochrome P450 2A6 = target: T2, Cytochrome P450 2A6 (Homo sapiens, UniProt P11509); experiment: Inhibition of human CYP2A6
T2 sequence (P11509 whole entry): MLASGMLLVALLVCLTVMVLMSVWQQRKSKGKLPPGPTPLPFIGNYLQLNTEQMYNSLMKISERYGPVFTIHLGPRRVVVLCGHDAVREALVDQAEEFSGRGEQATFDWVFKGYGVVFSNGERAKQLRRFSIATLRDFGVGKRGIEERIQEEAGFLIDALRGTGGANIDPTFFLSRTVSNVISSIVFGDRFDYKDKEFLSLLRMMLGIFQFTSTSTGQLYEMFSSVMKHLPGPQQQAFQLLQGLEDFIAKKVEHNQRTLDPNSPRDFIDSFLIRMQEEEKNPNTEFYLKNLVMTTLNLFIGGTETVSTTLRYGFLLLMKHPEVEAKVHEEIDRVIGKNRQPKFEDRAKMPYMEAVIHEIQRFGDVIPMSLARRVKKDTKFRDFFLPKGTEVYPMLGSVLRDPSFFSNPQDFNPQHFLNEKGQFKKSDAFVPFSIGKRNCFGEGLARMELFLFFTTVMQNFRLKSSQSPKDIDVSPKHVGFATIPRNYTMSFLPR

| Compound | IC50 (Cytochrome P450 2A5) [µM] | IC50 (Cytochrome P450 2A6) [µM] |
| --- | --- | --- |
| Clc1ccc(-c2ccccc2)cc1 | 13 |  |
| CN1C(=O)CCC1c1cccnc1 (centres undefined) | 1500 |  |
| CN1CCC[C@H]1c1cccnc1 [NICOTINE] | 160 | 579 |
